Results: ChEMBL document CHEMBL4028801, “A multifactorial approach to hepatobiliary transporter assessment enables improved therapeutic compound development” (Toxicol Sci, 2013)
Structures can show the parent of a compound that is named as a salt.

Assays:
[1] = target: T1, ATP-binding cassette sub-family C member 4 (Homo sapiens, UniProt O15439); assay: Inhibition of human MRP4 overexpressed in Sf9 cell membrane vesicles assessed as uptake of [3H]-estradiol-17beta-D-glucuronide in presence of ATP and GSH measured after 20 mins by membrane vesicle transport assay; format: ADME, cell-based
T1 sequence (O15439 whole entry): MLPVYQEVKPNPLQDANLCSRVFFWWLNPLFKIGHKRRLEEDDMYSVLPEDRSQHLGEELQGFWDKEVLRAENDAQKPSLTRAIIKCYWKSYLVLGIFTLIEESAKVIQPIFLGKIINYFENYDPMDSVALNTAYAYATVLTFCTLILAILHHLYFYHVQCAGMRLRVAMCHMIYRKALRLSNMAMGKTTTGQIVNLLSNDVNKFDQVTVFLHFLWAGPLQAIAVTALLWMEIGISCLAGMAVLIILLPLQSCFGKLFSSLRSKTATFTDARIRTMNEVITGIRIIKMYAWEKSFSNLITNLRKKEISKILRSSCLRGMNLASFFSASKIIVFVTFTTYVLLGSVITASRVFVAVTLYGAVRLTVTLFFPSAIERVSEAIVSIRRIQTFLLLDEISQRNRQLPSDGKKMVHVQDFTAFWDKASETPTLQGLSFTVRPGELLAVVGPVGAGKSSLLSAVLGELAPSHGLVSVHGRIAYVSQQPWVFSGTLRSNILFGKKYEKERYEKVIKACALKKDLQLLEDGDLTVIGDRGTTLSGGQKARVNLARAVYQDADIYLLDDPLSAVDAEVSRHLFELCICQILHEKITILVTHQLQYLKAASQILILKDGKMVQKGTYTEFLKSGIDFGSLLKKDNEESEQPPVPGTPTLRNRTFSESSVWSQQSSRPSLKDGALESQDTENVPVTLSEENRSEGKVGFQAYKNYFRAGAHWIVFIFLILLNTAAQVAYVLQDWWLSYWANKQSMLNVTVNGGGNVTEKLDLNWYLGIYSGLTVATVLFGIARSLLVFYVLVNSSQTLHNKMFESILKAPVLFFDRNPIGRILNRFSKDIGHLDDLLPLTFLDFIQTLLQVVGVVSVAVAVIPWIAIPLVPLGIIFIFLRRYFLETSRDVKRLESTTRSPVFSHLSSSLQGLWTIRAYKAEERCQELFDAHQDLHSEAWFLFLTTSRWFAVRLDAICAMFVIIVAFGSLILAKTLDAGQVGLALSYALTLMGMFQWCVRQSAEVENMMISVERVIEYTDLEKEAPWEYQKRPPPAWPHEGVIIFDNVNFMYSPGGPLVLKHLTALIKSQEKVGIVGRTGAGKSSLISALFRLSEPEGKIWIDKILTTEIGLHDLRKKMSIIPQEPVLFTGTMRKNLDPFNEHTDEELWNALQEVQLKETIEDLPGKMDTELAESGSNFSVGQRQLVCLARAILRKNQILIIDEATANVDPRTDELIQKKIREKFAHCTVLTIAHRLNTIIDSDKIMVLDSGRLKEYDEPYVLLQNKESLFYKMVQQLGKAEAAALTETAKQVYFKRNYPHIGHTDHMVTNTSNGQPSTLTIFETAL

[2] = target: ATP-binding cassette sub-family C member 2 (Homo sapiens, UniProt Q92887); assay: Inhibition of human MRP2 overexpressed in Sf9 cell membrane vesicles assessed as uptake of [3H]-estradiol-17beta-D-glucuronide in presence of ATP and GSH measured after 20 mins by membrane vesicle transport assay
[3] = target: Bile salt export pump (Homo sapiens, UniProt O95342); assay: Inhibition of human BSEP overexpressed in Sf9 cell membrane vesicles assessed as uptake of [3H]-taurocholate in presence of ATP measured after 15 to 20 mins by membrane vesicle transport assay; format: ADME, cell-based
[4] = target: ATP-binding cassette sub-family C member 3 (Homo sapiens, UniProt O15438); assay: Inhibition of human MRP3 overexpressed in Sf9 insect cell membrane vesicles assessed as uptake of [3H]-estradiol-17beta-D-glucuronide in presence of ATP and GSH measured after 10 mins by membrane vesicle transport assay; format: ADME, cell-based
ATP-binding cassette sub-family C member 3, sequence (O15438 whole entry): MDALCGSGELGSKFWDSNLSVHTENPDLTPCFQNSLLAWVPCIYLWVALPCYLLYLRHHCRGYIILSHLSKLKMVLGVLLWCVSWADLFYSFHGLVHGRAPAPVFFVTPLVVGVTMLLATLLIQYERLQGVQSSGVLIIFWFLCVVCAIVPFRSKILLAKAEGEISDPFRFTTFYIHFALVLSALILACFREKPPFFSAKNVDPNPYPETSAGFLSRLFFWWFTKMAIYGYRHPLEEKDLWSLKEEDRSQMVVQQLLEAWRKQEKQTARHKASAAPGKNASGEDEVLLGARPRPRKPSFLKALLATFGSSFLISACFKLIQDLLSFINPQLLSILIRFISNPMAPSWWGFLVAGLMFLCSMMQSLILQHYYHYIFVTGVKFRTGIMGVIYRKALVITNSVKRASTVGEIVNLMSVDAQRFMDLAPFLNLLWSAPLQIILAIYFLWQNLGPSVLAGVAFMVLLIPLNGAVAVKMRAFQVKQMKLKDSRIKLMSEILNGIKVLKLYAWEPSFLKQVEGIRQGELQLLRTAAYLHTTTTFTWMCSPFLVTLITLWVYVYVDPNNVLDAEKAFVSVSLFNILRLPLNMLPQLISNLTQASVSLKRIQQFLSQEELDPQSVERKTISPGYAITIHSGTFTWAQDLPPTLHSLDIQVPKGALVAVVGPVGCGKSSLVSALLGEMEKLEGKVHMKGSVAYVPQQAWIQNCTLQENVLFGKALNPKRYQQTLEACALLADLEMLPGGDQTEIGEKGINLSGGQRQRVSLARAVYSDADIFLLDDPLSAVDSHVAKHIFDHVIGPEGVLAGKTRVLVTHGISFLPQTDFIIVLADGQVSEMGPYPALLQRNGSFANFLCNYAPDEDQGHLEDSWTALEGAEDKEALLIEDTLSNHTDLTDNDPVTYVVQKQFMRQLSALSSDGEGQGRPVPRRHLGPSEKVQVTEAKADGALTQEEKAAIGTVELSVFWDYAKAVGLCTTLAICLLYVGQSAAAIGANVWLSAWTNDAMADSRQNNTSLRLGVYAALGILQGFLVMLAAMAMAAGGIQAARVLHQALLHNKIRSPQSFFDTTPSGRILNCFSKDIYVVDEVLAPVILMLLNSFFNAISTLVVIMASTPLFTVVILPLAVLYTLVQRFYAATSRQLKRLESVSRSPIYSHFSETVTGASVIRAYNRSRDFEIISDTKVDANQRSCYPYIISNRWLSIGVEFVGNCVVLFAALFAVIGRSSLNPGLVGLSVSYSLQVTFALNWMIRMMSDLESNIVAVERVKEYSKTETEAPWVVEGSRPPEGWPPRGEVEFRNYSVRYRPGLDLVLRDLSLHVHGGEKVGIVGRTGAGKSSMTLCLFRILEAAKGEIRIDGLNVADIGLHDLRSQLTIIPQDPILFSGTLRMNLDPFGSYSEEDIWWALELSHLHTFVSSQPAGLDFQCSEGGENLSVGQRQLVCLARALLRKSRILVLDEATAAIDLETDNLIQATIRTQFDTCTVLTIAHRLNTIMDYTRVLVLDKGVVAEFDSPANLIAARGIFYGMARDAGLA

Bile salt export pump, sequence (O95342 whole entry): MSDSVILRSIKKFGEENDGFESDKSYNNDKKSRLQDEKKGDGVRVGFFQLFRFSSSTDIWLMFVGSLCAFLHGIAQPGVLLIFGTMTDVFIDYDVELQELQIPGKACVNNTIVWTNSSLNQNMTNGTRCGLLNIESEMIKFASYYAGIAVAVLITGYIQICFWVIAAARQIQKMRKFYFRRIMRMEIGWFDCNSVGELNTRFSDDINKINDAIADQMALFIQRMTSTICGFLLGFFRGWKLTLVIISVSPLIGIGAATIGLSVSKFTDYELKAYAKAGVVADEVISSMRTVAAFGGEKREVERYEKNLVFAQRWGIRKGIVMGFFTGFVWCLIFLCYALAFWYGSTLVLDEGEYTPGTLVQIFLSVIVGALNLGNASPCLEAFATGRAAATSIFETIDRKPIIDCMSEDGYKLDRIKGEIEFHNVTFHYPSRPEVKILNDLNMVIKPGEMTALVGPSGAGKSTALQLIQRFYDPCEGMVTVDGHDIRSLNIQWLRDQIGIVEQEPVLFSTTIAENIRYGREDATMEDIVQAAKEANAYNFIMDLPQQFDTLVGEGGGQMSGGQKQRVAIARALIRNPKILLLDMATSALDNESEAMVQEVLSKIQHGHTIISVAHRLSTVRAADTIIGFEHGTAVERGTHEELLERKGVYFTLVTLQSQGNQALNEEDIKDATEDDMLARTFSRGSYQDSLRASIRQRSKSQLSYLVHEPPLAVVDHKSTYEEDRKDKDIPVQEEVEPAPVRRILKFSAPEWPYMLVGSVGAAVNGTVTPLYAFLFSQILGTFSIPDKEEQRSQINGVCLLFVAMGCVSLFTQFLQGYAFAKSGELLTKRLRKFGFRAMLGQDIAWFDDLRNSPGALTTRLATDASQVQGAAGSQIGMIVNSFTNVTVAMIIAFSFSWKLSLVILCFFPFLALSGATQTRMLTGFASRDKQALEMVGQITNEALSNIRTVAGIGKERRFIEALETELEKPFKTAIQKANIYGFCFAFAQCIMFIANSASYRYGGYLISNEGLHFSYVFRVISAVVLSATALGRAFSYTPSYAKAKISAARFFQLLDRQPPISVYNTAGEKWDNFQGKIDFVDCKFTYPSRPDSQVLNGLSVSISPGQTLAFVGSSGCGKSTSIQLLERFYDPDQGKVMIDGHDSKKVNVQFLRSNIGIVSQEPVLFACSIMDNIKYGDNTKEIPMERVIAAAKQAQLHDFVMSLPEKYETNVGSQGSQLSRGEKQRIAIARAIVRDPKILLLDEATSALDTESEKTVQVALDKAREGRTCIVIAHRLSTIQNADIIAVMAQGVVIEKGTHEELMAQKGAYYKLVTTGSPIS
ATP-binding cassette sub-family C member 2, sequence (Q92887 whole entry): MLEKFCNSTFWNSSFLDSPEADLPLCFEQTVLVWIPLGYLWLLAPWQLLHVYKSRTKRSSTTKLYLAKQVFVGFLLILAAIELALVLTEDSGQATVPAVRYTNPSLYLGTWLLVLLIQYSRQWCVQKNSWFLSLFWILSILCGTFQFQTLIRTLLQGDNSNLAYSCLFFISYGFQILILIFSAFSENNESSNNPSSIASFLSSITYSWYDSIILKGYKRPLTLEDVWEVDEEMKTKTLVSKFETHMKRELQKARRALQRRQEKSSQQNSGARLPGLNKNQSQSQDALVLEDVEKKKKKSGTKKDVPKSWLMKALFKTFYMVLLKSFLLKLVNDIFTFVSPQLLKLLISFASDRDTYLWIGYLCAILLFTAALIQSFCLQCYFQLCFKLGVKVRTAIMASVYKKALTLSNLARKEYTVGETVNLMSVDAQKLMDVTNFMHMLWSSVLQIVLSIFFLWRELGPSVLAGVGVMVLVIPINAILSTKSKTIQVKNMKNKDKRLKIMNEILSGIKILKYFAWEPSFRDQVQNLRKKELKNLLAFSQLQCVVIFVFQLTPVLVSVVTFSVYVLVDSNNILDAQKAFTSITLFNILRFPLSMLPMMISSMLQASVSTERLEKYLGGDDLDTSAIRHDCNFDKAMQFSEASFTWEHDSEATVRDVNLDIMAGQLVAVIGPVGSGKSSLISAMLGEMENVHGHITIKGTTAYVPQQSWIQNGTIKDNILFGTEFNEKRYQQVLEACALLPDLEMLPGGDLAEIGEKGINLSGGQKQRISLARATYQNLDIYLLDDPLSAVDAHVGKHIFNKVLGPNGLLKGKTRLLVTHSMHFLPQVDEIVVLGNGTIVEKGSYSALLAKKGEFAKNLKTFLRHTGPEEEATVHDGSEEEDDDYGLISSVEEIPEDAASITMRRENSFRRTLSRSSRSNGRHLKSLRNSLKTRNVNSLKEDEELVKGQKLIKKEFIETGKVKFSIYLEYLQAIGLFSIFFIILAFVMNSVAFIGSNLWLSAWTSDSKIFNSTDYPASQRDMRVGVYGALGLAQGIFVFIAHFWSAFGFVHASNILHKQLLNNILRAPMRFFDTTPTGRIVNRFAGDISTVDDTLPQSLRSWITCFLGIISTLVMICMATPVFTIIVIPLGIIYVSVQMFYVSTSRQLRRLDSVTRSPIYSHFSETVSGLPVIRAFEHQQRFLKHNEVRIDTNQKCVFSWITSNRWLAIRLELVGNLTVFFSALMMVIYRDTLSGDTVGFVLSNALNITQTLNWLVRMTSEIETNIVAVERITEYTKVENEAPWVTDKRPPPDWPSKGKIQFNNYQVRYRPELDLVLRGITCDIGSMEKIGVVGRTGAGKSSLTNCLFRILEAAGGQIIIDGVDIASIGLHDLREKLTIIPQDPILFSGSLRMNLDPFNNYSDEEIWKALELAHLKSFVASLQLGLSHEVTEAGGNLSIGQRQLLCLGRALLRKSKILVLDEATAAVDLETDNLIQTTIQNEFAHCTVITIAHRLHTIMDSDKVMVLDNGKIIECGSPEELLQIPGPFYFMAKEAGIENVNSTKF

Row | SMILES | IC50 [1] [µM] | IC50 [2] [µM] | IC50 [3] [µM] | IC50 [4] [µM]
1 | COC(=O)[C@H](c1ccccc1Cl)N1CCc2sccc2C1 [CLOPIDOGREL BISULFATE] | > 133 | > 133 | 72 | > 133
2 | CC(=O)OCC(CCn1cnc2cnc(N)nc21)COC(C)=O [FAMCICLOVIR] | > 133 | > 133 | > 133 | > 133
3 | CO/N=C(\C(=O)N[C@@H]1C(=O)N2C(C(=O)OC(C)OC(C)=O)=C(COC(N)=O)CS[C@H]12)c1ccco1 (some centres not stated) [CEFUROXIME AXETIL] | 28 | > 133 | > 133 | > 133
4 | COc1cc([C@@H]2c3cc4c(cc3[C@@H](O[C@@H]3O[C@@H]5CO[C@@H](c6cccs6)O[C@H]5[C@H](O)[C@H]3O)[C@H]3COC(=O)[C@H]23)OCO4)cc(OC)c1O [TENIPOSIDE] | 34.9 | > 133 | > 133 | 20.6
5 | CN1CCC[C@H]1c1cccnc1 [NICOTINE] | > 133 | > 133 | > 133 | > 133
6 | C[C@]12CC[C@H]3[C@@H](CC[C@@]45O[C@@H]4C(O)=C(C#N)C[C@]35C)[C@@H]1CC[C@@H]2O [TRILOSTANE] | > 133 | > 133 | > 133 | > 133
7 | Clc1ccc(COC(Cn2ccnc2)c2ccc(Cl)cc2Cl)c(Cl)c1 (configuration not stated) [MICONAZOLE NITRATE] | > 133 | > 133 | 114 | > 133
8 | NS(=O)(=O)c1cc2c(cc1Cl)NCNS2(=O)=O [HYDROCHLOROTHIAZIDE] | > 133 | > 133 | > 133 | > 133
9 | CC(C)C(=O)Nc1ccc([N+](=O)[O-])c(C(F)(F)F)c1 [FLUTAMIDE] | > 133 | > 133 | > 133 | > 133
10 | C[C@]12CC[C@@H]3c4ccc(O)cc4C[C@@H](CCCCCCCCC[S+]([O-])CCCC(F)(F)C(F)(F)F)[C@H]3[C@@H]1CC[C@@H]2O (some centres not stated) [FULVESTRANT] | > 133 | > 133 | > 133 | > 133
11 | C[C@H]1c2cccc(O)c2C(=O)C2=C(O)[C@]3(O)C(=O)C(C(N)=O)=C(O)[C@@H](N(C)C)[C@@H]3[C@@H](O)[C@@H]21 [DOXYCYCLINE HYDROCHLORIDE] | > 133 | > 133 | > 133 | > 133
12 | NC1=NC(=O)C(c2ccccc2)O1 (configuration not stated) [PEMOLINE] | > 133 | > 133 | > 133 | > 133
13 | Cc1ccc(C(=O)Nc2ccc(S(=O)(=O)O)c3cc(S(=O)(=O)O)cc(S(=O)(=O)O)c23)cc1NC(=O)c1cccc(NC(=O)Nc2cccc(C(=O)Nc3cc(C(=O)Nc4ccc(S(=O)(=O)O)c5cc(S(=O)(=O)O)cc(S(=O)(=O)O)c45)ccc3C)c2)c1 [SURAMIN] | > 133 | 36.8 | > 133 | > 133
14 | COc1cccc2c1C(=O)c1c(O)c3c(c(O)c1C2=O)C[C@@](O)(C(=O)CO)C[C@@H]3O[C@H]1C[C@H](N)[C@H](O)[C@H](C)O1 [DOXORUBICIN] | 19 | > 133 | > 133 | > 133
15 | CCC(=O)O[C@]1(C(=O)SCF)[C@H](C)C[C@H]2[C@@H]3C[C@H](F)C4=CC(=O)C=C[C@]4(C)[C@@]3(F)[C@@H](O)C[C@@]21C [FLUTICASONE PROPIONATE] | > 133 | > 133 | > 133 | > 133
16 | Cc1c(OCC(F)(F)F)ccnc1C[S+]([O-])c1nc2ccccc2[nH]1 (configuration not stated) [LANSOPRAZOLE] | > 133 | > 133 | > 133 | > 133
17 | O=C(O)CCC/C=C\CC1C(O)CC(O)C1/C=C/C(O)COc1cccc(Cl)c1 (configuration not stated) [CLOPROSTENOL SODIUM] | 1.9 | > 133 | > 133 | > 133
18 | CC(=O)Oc1ccccc1C(=O)Nc1ncc([N+](=O)[O-])s1 [NITAZOXANIDE] | > 133 | > 133 | > 133 | > 133
